Measurements taken from patent US11400112B2, “Combination therapy for treatment of leukemia” (St George's Hospital Medical School, priority 2018, dated 2022).

Assays:
[1] = tested on: U937 cells; assay: Viability of U937 cells (apoptosis assay, Annexin V/7AAD); type: cell-based; conditions: 48 hours
Method: The half-maximal inhibitory concentration (IC-50) values were generated using Graph Pad Prism5 software (La Jolla, Calif., USA). ii) Apoptosis Assay: Leukemic cell lines were added (2×10^5 cells/well) in 24-well plates and treated with different drugs reported to disrupt the metabolic adaptation of the leukemia cells along with appropriate controls. After 48 h of incubation at 37° C. CO2 incubator, the viability of the leukemic cells was measured using an Annexin V/7-aminoactinomycin D (7AAD) apoptosis assay kit (BD Pharmingen, San Diego, Calif., USA) as per the manufacturer's protocol. The flow cytometry data were analysed using Cell Quest pro software (BD Biosciences, San Jose, Calif., USA). iii) Measurement of Glucose Uptake: 5×10^5 cells were stained with 2-NBDG (fluorescent analogue of 2-Deoxyglucose) for 10 minutes, washed and the fluorescence measured at 485 nm/595 nm using Spectramax M4.

[2] = mouse, in vivo
Method: To further validate this in vitro observation, in vivo studies were performed on a mouse model of acute promyelocytic leukemia.

[3] = tested on: ATO resistant cell lines (NB4-EVAsR1, UF-1); assay: Viability of ATO resistant cell lines (apoptosis assay); type: cell-based; conditions: NB4-EVAsR1 and UF-1; 48 hours
Method: (§1) In particular, the effects of Metformin, Dichloroacetate (DCA) and Artesunate (ART) in combination with arsenic trioxide were evaluated. […] Methods i) In vitro cytotoxicity assay: 10^5 cells/well were seeded in a 96 well plate and treated with increasing concentration of artesunate and arsenic trioxide and incubated for 48 hours. At the end of 48 hrs MTT was added, followed by SDS to solubilize the formazan crystals formed by the viable cells. The absorbance was measured on an ELISA plate reader SpectraMaxM4 (Molecular Devices) at a test wavelength of 570 nm and a reference wavelength of 630 nm to measure the optical density. […] An IC-50 value was generated if significant cytotoxicity was detected. […] CO2 incubator, the viability of the leukemic cells was measured using an Annexin V/7-aminoactinomycin D (7AAD) apoptosis assay kit (BD Pharmingen, San Diego, Calif., USA) as per the manufacturer's protocol. The flow cytometry data were analysed using Cell Quest pro software (BD Biosciences, San Jose, Calif., USA). iii) Measurement of Glucose Uptake: 5×10^5 cells were stained with 2-NBDG (fluorescent analogue of 2-Deoxyglucose) for 10 minutes, washed and the fluorescence measured at 485 nm/595 nm using Spectramax M4. […] The ratio of red to green fluorescence (590/530) was calculated and the Δψm of treated cells compared with the untreated cells.

[4] = tested on: NB4 naïve cells; assay: Viability of NB4 naïve cells (apoptosis assay, Annexin V/7AAD); type: cell-based; conditions: 48 hours
Method: as §1

[5] = tested on: malignant cells (NB4 naïve, NB4-EVAsR1, U937, THP-1, Kasumi, Jurkat cell lines); assay: Apoptosis assay on leukemic cell lines (FIG. 5); type: cell-based; conditions: 2 μM ATO, 5 μM ART, 48 hours
Method: as §1

[6] = tested on: acute promyelocytic leukemia (APL); conditions: standard of care; cited from earlier work

Molecule: NCC(=O)CCC(=O)O [ALA, Delta-aminolevulinic acid]
- viability of AML cells (Annexin V-/7AAD- cells) ([1]; ATO 1 μM, ART 5 μM, ALA 1 mM, DFO 20 μM, FIG. 7): did not affect
- toxicity in mice [2]: significant toxicity

Molecule: O=CC[C@@H](O)[C@H](O)[C@H](O)CO [2-DOG, 2-Deoxy-D-glucose]
- viability of the ATO resistant cell lines [3]: resistant
- viability of NB4 naïve cells [4]: sensitive

Molecule: C[C@H]1[C@H](OC(=O)CCC(=O)O)O[C@@H]2O[C@@]3(C)CC[C@H]4[C@H](C)CC[C@@H]1[C@@]24OO3 [ART, artesunate]
- effect on the malignant cells (Annexin V-/7AAD- cells) [5]: did not have a significant effect

Molecule: hemin
- viability of AML cells (Annexin V-/7AAD- cells) ([1]; hemin instead of ALA, FIG. 8): did not affect

Molecule: CN(C)C(=N)N=C(N)N [Metformin]
- effect on the malignant cells (Annexin V-/7AAD- cells) [5]: did not have a significant effect

Molecule: N#CC(C#N)=NNc1ccc(OC(F)(F)F)cc1 [FCCP, Carbonyl cyanide-4-(trifluoromethoxy)phenylhydrazone]
- viability of the ATO resistant cell lines [3]: remained unaffected

Molecule: Arsenic trioxide [ATO]
- outcome in the management of APL [6]: greater than 80%
